Measured values from patent US11491244B2, “Labeled fluorocarbon agents for positron emission tomography imaging” (McMaster University, priority 2017, dated 2022).
Entries after “also recorded” stand apart in the source; their conditions may differ.

Legend:
[1] = Solubility of the fluorinated product in fluorocarbons; assay type: physicochemical
[2] = Stability of [18F]CF3(CF2)7(CH2)3F in water, with and without sonication; assay type: physicochemical
Procedure: [^18F]CF3(CF2)7(CH2)3F (125 MBq) in FC-72 (2 mL) was separated into 4 equal samples, and water (0.5 mL) was added to each with stirring. At 0.5, 1, 2 and 4 h, the water layer was removed and the amount of activity measured. In addition, [^18F]CF3(CF2)7(CH2)3F (28 MBq) in FC-72 (130 μL) and DI water (2 mL) was suspended in ice and sonicated using a Branson, Digital S450D Sonifier (Emerson Canada, Markham, ON, Canada) for 10 min at 10% amplitude, using 1 second on-1 second off pulses. The samples were centrifuged and the activity in the aqueous layers were measured using a gamma counter.
The focus shifted to using precursors with a propyl spacer in an attempt to minimize the influence of the electron withdrawing fluorine groups. The mesylate CF3(CF2)7(CH2)3OMs and tosylate CF3(CF2)7(CH2)3OTs were prepared and labelled with [^18F]F^−. The tosylate produced the desired compound (RCY 15%±3; n=5) when the reaction was heated to 75° C. for 30 min. While the overall yield was modest, the product could be easily isolated and separated from impurities by liquid-liquid extraction using FC-72 and water.

[3] = neat perfluorocarbon; cited from earlier work

Q: Which “Solubility in FCs” value [1] does the source give for `FCCC(F)(F)C(F)(F)C(F)(F)C(F)(F)C(F)(F)C(F)(F)C(F)(F)C(F)(F)F` [CF3(CF2)7(CH2)2F] here?
A: good solubility in FCs

Q: For `FC(F)(F)C(F)(F)C(F)(F)C(F)(F)C(F)(F)C(F)(F)C(F)(F)C(F)(F)CCC[18F]` [[^18F]CF3(CF2)7(CH2)3F], which “Activity in the aqueous layer post-sonication” value ([2]; FC-72 and DI water, sonicated without stabilizing surfactants) is on record?
A: no activity was found in the aqueous layer

Q: What about the “Free [18F]F− by radioHPLC and radioTLC” value ([2]; FC-72 solution extracted with water periodically over 4 h) of the same molecule?
A: no evidence of free [^18F]F^−

Q: And the “Loss of fluoride in vitro / in solution” value ([2]; left in solution over the timeframe of the imaging studies)?
A: no signs of loss of fluoride; also recorded: stable with respect to loss of fluoride in vitro

Q: With `FC(F)(F)C(F)(F)C(F)(F)C(F)(F)C(F)(F)C(F)(F)C(F)(F)C(F)(F)Br` [PFOB, perfluorooctylbromide] as the molecule, how does the “Water Solubility 25° C.” value [3] read?
A: Insoluble

Q: For `FC(F)(F)C(F)(F)C(F)(F)C(F)(F)C(F)(F)C(F)(F)F` [PFH, perfluorohexane], which “Water Solubility 25° C.” value [3] is on record?
A: Insoluble

Q: And the “Water Solubility 25° C. (bound)” value [3]?
A: (<25 ppm)
